Tests used:
6-OHDA-lesioned rats = assay: L-DOPA induced dyskinesia (AIM scores) in the 6-OHDA-lesioned rat model of Parkinson's disease; type: in vivo, Sprague Dawley rats; conditions: for reduction of LID: comparators, data not shown, dose not given
5-HT1A = target: T1, 5-HT1A (Homo sapiens, UniProt P08908); assay: 5-HT1A cAMP HTRF assay (agonist test, Euroscreen FAST-0500C); type: cell-based
T1 construct: host or cells: CHO-K1
T1 sequence (P08908 1-422): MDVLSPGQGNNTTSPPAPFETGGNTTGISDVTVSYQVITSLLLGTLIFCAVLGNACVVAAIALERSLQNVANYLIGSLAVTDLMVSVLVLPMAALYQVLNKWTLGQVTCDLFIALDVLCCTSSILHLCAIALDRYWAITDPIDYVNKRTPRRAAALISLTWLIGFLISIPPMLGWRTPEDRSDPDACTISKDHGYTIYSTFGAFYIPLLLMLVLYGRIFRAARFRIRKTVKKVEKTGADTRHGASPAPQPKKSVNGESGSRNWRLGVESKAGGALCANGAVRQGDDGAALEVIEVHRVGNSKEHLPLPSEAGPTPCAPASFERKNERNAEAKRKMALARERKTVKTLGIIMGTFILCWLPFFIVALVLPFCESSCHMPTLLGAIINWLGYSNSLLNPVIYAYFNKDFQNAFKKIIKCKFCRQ
Protocol: (§1) A. In vitro 5-HT1A/B Activity Measurements: 5-HT1A/B cAMP HTRF assay (performed at Euroscreen, order no.: 5-HT1A:FAST-0500C, 5-HT1B: FAST-0501 C)
(§2) CHO-K1 cells expressing each human recombinant receptor (see Table 1) grown prior to the test in media without antibiotic were detached by gentle flushing with PBS-EDTA, recovered by centrifugation and resuspended in assay buffer. Dose response curves are performed in parallel with the reference compounds.
(§3) For agonist tests (96well): 12 µl of cells were mixed with 6 µl of the test compound at increasing concentrations and 6 µl of forskolin then incubated 30 min at room temperature. After addition of the lysis buffer and 1 hour incubation, cAMP concentrations were estimated, according to the manufacturer specification, with the HTRF kit (Cisbio).
Assay buffer consisted of: 5 mM KCI, 1.25 mM MgSO4, 124 mM NaCl, 25 mM HEPES, 13.3 mM Glucose, 1.25 mM KH2PO4, 1.45 mM CaCl2, and 0.5 g/I BSA. PBS-EDTA contained 137 mM NaCl, 2.7 mM KCI, 10 mM Na2HPO4, 2 mM KH2PO4 and 5 mM EDTA. […]
(§4) Dose-response data from test compounds were analyzed with XLfit (IDBS) software using nonlinear regression applied to a sigmoidal dose-response model (4 Parameter Fit).
(§5) Agonist activity of test compounds is expressed as a percentage of the activity of the reference agonist at a saturating concentration.

5-HT1B = target: T2, 5-HT1B (Homo sapiens, UniProt P28222); assay: 5-HT1B cAMP HTRF assay (agonist test, Euroscreen FAST-0501C); type: cell-based
T2 construct: host or cells: CHO-K1
Protocol: as §1, §2, §3
Assay buffer consisted of: 5 mM KCI, 1.25 mM MgSO4, 124 mM NaCl, 25 mM HEPES, 13.3 mM Glucose, 1.25 mM KH2PO4, 1.45 mM CaCl2, and 0.5 g/I BSA. PBS-EDTA contained 137 mM NaCl, 2.7 mM KCI, 10 mM Na2HPO4, 2 mM KH2PO4 and 5 mM EDTA. Cell lines used were derived from CHO-K1 stably expressing the human receptors needed for the pharmacological testing (see Table 1). 5-Carboxamidotryptamine (5-CT) was used as reference agonist.
On each day of experimentation, reference compounds were tested at several concentrations in duplicate (n=2) to obtain a dose-response curve and an estimated EC50 value.
Reference values thus obtained for the test were compared to historical values obtained from the same receptor and used to validate the experimental session. […] For replicate determinations, the maximum variability tolerated in the test was of +/-20% around the average of the replicates.
as §4, §5

5-HT2B = target: T3, 5-HT2B (Homo sapiens, UniProt P41595); assay: 5-HT2B IP-One HTRF assay (Euroscreen FAST-0506I); type: cell-based
T3 construct: host or cells: CHO-K1
Protocol: B. 5-HT2B assay (performed at Euroscreen, order no.: FAST-0506I):
The 5-HT2B [00136] IP-One HTRF assay was conducted with recombinant cell lines, receptor accession numbers, cellular background and reference compounds are shown in Table 1.
Cells expressing human recombinant 5-HT2B (FAST-506I) grown to mid-log phase in culture media without antibiotics will be detached with PBS-EDTA, centrifuged and resuspended in medium without antibiotics buffer. 20,000 cells will be distributed in a 96 well plate and incubated overnight at 37°C with 5% CO2.
For agonist testing, the medium will be removed and 20 µl of assay buffer plus 20 µl of test compound or reference agonist will be added in each well. The plate will be incubated for 60 min at 37°C with 5% CO2.
For antagonist testing, 20 µl of test compound or reference antagonist is added and the plate is incubated for 15 min. at 37°C in a humidified atmosphere of 95% air with 5% CO2, then 20 µl of reference agonist at a final concentration corresponding to the historical EC80 is added. […]
IP1-D2 reagent and anti-IP1 cryptate reagents will be then dispensed in the wells and DeltaF percentage values will be then calculated following the manufacturer (CisBio) recommendations. […]
as §4

[1] = cited from earlier work
MAO-A = target: T4, MAO-A (Homo sapiens, UniProt P21397); conditions: cited from earlier work
T4 sequence (P21397 1-527): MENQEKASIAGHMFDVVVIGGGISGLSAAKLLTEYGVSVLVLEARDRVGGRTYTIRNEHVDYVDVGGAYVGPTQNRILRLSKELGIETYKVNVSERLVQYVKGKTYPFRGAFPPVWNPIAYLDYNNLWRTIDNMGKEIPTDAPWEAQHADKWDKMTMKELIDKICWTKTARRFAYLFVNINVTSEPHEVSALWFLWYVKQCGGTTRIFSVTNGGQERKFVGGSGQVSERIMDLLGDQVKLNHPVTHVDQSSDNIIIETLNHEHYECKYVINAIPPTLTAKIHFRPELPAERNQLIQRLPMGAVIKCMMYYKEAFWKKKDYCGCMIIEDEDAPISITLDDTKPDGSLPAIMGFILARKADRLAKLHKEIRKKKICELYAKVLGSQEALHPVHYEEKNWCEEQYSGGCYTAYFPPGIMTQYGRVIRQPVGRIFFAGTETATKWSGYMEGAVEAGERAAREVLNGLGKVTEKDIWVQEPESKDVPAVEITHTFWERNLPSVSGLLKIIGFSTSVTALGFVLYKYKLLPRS

MAO-B = target: T5, MAO-B (Homo sapiens, UniProt P27338); conditions: cited from earlier work
T5 sequence (P27338 1-520): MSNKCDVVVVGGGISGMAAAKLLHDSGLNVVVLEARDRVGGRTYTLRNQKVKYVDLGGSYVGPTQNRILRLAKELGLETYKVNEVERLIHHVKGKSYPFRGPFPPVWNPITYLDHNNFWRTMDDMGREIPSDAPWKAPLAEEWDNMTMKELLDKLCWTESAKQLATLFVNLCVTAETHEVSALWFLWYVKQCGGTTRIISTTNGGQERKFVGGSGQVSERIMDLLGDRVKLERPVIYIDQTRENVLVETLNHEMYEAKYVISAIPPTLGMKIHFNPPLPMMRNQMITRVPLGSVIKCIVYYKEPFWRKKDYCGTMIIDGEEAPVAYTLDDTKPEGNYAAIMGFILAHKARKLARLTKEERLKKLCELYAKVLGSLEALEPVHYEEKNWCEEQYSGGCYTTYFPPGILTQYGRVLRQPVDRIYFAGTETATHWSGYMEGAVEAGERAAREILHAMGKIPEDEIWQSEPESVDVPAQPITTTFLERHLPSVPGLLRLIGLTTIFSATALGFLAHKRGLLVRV

[2] = target: T6, Muscarinic acetylcholine receptors M1 (Homo sapiens, UniProt P11229); conditions: cited from earlier work
T6 sequence (P11229 1-460): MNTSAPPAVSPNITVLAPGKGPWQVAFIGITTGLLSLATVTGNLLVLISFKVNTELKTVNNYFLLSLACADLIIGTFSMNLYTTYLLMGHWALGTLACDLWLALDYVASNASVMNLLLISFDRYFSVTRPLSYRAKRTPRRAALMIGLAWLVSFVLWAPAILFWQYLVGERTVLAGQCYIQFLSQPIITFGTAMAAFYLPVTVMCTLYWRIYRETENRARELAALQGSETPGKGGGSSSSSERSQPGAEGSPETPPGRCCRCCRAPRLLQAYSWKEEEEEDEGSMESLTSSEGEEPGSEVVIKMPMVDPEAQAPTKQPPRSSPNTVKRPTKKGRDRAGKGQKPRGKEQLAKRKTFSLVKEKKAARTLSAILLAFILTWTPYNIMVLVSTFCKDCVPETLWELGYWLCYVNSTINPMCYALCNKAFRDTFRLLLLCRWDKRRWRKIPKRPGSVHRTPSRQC

[3] = target: T7, Muscarinic acetylcholine receptors M2 (Homo sapiens, UniProt P08172); conditions: cited from earlier work
T7 sequence (P08172 1-466): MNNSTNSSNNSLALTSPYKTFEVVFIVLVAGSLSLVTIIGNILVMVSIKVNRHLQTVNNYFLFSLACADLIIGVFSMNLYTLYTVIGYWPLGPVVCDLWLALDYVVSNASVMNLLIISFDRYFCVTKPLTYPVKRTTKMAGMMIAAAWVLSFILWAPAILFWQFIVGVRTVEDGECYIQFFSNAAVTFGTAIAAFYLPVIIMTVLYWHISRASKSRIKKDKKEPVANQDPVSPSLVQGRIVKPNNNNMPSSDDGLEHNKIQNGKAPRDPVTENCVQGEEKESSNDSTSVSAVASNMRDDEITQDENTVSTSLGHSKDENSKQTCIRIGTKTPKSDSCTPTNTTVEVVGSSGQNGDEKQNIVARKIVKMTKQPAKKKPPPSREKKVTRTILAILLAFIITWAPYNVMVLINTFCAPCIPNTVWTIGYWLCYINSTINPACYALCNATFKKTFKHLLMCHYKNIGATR

[4] = target: Muscarinic acetylcholine receptors M3 (Homo sapiens, UniProt P20309); conditions: cited from earlier work
NMDA receptor = conditions: cited from earlier work

T2 sequence (P28222 whole entry): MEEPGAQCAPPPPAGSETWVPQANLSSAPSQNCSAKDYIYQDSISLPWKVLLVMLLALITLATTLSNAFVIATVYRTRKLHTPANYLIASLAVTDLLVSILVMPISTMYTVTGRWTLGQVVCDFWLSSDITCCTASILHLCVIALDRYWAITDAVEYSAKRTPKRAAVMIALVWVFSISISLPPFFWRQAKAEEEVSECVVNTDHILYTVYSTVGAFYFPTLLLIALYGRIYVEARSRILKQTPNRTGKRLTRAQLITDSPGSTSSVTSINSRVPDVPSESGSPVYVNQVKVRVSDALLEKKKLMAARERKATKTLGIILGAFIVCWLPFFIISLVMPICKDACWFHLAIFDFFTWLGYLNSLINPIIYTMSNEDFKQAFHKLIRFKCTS
T3 sequence (P41595 whole entry): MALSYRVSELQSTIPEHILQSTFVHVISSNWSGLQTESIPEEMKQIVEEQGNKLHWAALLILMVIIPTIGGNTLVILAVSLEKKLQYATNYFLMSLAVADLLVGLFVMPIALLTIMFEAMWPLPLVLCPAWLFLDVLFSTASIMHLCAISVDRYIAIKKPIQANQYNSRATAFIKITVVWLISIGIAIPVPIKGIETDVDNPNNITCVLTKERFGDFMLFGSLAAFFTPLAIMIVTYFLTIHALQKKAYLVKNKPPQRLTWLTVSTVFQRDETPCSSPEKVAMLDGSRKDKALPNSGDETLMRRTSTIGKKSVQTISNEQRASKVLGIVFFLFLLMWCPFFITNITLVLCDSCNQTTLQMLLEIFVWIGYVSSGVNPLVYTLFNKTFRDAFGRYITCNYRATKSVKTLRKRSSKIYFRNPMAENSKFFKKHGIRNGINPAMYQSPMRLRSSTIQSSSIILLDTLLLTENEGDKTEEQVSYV
Sequence of Muscarinic acetylcholine receptors M3 (P20309 whole entry): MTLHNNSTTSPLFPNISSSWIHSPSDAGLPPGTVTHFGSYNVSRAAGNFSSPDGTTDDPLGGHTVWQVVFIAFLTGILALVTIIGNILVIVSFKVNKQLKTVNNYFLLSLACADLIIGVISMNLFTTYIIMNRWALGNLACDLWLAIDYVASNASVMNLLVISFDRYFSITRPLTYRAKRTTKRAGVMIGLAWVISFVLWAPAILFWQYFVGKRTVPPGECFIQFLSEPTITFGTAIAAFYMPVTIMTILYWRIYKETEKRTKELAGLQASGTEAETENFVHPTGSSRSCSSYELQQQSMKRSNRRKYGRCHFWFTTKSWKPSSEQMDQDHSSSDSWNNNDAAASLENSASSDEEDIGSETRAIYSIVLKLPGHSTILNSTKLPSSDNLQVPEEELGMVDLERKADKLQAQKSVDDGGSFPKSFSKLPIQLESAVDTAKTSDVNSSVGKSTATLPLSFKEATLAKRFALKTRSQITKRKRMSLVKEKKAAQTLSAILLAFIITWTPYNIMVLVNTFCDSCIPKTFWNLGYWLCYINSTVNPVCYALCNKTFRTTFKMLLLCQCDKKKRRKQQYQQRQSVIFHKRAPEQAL

Structure (SMILES)	reduction of LID (6-OHDA-lesioned rats) [%]	EC50 (5-HT1A) [nM]	Emax (5-HT1A; 0.5 h, CHO-K1 cells, human recombinant receptor, percentage of the activity of reference agonist 5-CT at saturating concentration, read-out: partial agonism, efficacy at 5-HT1A) [%]	Emax (5-HT1B; 0.5 h, CHO-K1 cells, human recombinant receptor, percentage of the activity of reference agonist 5-CT at saturating concentration, read-out: partial agonism, efficacy at 5-HT1B) [%]	EC50 (5-HT1B; CHO-K1 cells, human recombinant receptor, cAMP with forskolin, read-out: partial agonism at 5-HT1B (potency)) [nM]	action at the 5-HT1B receptor (5-HT1B; human recombinant cell lines)	IC50 (5-HT2B) [nM]	effect on LID (AIM scores) (6-OHDA-lesioned rats; 10 mg/kg p.o., 10 min before L-DOPA/benserazide 6/15 mg/kg i.p.)	adverse events in Phase 1 studies [1]	activity at MAO-A (MAO-A)	activity at MAO-B (MAO-B)	activity at Muscarinic acetylcholine receptor M1 [2]	activity at Muscarinic acetylcholine receptor M2 [3]	activity at Muscarinic acetylcholine receptor M3 [4]	activity at NMDA receptor (NMDA receptor)
NC12CC3CC(CC(C3)C1)C2 [Amantadine]	-25	–	–	–	–	–	–	–	–	–	–	–	–	–	–
c1cc2c(c(N3CCNCC3)c1)OCCO2 [Eltoprazine]	-60	–	–	–	–	–	–	–	–	–	–	–	–	–	–
COc1cccc2c1CCC(=O)N2CCCN1CCN(c2cccc(Cl)c2)CC1 [OPC-14523, 1-[3-[4-(3-Chlorophenyl)piperazin-1-yl]propyl]-5-methoxy-1,2,3,4-tetrahydroquinolin-2-one]	–	26	~60	~60	7	partial agonist	160	strongly reduced LID	no adverse events	inactive	inactive	inactive	inactive	inactive	inactive

Reference: patent EP2792359A1, “Treatment of L-DOPA-induced dyskinesia with OPC-14523 or OPC-34712” (Merz Pharma GmbH & Co. KGaA, priority 2013, dated 2014)
